Patent publication US7385054B2, “Trimeric, macrocyclically substituted halo-benzene derivatives” (Schering AG, priority 2004, dated 2008)

Columns and labels:
[1] = Osmolality of the solution at 200 mg (I + Gd)/ml; type: physicochemical; details: prior-art compounds as Na-salt
Mouse = test: LD50 (Mouse), acute toxicity; type: in vivo
[2] = BuOH/H2O distribution coefficient; type: physicochemical; details: butanol/water

Row | Structure (SMILES) | Osmolality 200 mg (I + Gd)/ml [1] [mosmol/l] | LD50 (Mouse) (Mouse) | BuOH/H2O Distribution Coefficient [2]
1 | CC(C(=O)NCC(=O)NCCNC(=O)c1c(I)c(C(=O)NCCNC(=O)CNC(=O)C(C)N2CCN(CC(=O)[O-])CCN(CC(=O)[O-])CCN(CC(=O)[O-])CC2)c(I)c(N(C)C(=O)C(C)N2CCN(CC(=O)[O-])CCN(CC(=O)[O-])CCN(CC(=O)[O-])CC2)c1I)N1CCN(CC(=O)[O-])CCN(CC(=O)[O-])CCN(CC(=O)[O-])CC1.[Gd+3].[Gd+3].[Gd+3] (mixture of isomers) [Example 8, 2,4,6-Triiodo-5-(2-{10-[1,4,7-tris-(carboxymethyl)-1,4,7,10-tetraazacyclododecanyl]}propionyl, Gd-complex)methylaminoisophthalic acid-N,N-bis-(3,6-diaza-4,7-dioxo-8-methyloctane-1,5-diyl-{10-[1,4,7-tris-(carboxymethyl)-1,4,7,10-tetraazacyclododecanyl, Gd-complex]})amide] | 346 | >12.0 g(I + Gd)/ g(I + Gd)/kg | 0.00005
2 | CC(C(=O)NCCNC(=O)c1c(I)c(C(=O)NCCNC(=O)C(C)N2CCN(CC(=O)[O-])CCN(CC(=O)[O-])CCN(CC(=O)[O-])CC2)c(I)c(N(C)C(=O)C(C)N2CCN(CC(=O)[O-])CCN(CC(=O)[O-])CCN(CC(=O)[O-])CC2)c1I)N1CCN(CC(=O)[O-])CCN(CC(=O)[O-])CCN(CC(=O)[O-])CC1.[Gd+3].[Gd+3].[Gd+3] (stereo not drawn) [Example 1, 2,4,6-Triiodo-5-(2-{10-[1,4,7-tris-(carboxymethyl)-1,4,7,10-tetraazacyclododecanyl]}propionyl, Gd-complex)methylaminoisophthalic acid-N,N-bis-(3-aza-5-methyl-4-oxopentane-1,5-diyl-{10-[1,4,7-tris-(carboxymethyl)-1,4,7,10-tetraazacyclododecanyl,Gd-complex]})amide] | 358 | >12.0 g(I + Gd)/ g(I + Gd)/kg | 0.00005
3 | CN(C(=O)CN1CCN(CC(=O)[O-])CCN(CC(=O)[O-])CCN(CC(=O)[O-])CC1)c1c(I)c(C(=O)NCCNC(=O)CN2CCN(CC(=O)[O-])CCN(CC(=O)[O-])CCN(CC(=O)[O-])CC2)c(I)c(C(=O)NCCNC(=O)CN2CCN(CC(=O)[O-])CCN(CC(=O)[O-])CCN(CC(=O)[O-])CC2)c1I.[Gd+3].[Gd+3].[Gd+3] [Example 5, 2,4,6-Triiodo-5-({10-[1,4,7-tris-(carboxymethyl)-1,4,7,10-tetraazacyclododecanyl]}acetyl, Gd-complex)methylaminoisophthalic acid-N,N-bis-(3-aza-4-oxopentane-1,5-diyl-{10-[1,4,7-tris-(carboxymethyl)-1,4,7,10-tetraazacyclododecanyl, Gd-complex]})amide] | 371 | >12.0 g(I + Gd)/ g(I + Gd)/kg | 0.00006
4 | O=C([O-])CN1CCN(CC(=O)[O-])CCN(CC(=O)NCCNC(=O)c2c(I)c(NC(=O)CN3CCN(CC(=O)[O-])CCN(CC(=O)[O-])CCN(CC(=O)[O-])CC3)c(I)c(C(=O)NCCNC(=O)CN3CCN(CC(=O)[O-])CCN(CC(=O)[O-])CCN(CC(=O)[O-])CC3)c2I)CCN(CC(=O)[O-])CC1.[Gd+3].[Gd+3].[Gd+3] [Example 7, 2,4,6-Triiodo-5-({10-[1,4,7-tris-(carboxymethyl)-1,4,7,10-tetraazacyclododecanyl]}acetyl, Gd-complex)aminoisophthalic acid-N,N-bis-(3-aza-4-oxopentane-1,5-diyl-{10-[1,4,7-tris-(carboxymethyl)-1,4,7,10-tetraazacyclododecanyl, Gd-complex]})amide] | 334 | >12.0 g(I + Gd)/ g(I + Gd)/kg | 0.00005
